Source: paper PMC5540273, “Progress towards a public chemogenomic set for protein kinases and a call for contributions” (PLoS ONE, 2017)

Key:
Experiment in all cases: KINOMEscan competition binding
CDKL2 = target: T1, CDKL2 (Homo sapiens, UniProt Q92772); settings: read-out: %Inh CDKL2
T1 sequence (Q92772 1-493): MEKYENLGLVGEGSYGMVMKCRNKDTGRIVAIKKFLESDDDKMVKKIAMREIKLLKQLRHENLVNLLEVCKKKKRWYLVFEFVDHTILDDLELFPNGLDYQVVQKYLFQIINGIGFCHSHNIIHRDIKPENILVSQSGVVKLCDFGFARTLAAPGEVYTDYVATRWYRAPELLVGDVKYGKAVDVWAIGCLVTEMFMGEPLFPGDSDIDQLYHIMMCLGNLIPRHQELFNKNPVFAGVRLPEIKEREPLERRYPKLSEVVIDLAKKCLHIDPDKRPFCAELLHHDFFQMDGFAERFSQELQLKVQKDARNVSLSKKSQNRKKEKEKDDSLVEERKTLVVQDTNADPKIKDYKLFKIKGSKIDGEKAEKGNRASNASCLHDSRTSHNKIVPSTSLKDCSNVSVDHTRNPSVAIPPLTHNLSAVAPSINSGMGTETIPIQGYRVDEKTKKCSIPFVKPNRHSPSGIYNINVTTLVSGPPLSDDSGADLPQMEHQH

CLK1 = CLK1 (Homo sapiens, UniProt P49759); settings: read-out: %Inh CLK1
Sequence of CLK1 (P49759 whole entry): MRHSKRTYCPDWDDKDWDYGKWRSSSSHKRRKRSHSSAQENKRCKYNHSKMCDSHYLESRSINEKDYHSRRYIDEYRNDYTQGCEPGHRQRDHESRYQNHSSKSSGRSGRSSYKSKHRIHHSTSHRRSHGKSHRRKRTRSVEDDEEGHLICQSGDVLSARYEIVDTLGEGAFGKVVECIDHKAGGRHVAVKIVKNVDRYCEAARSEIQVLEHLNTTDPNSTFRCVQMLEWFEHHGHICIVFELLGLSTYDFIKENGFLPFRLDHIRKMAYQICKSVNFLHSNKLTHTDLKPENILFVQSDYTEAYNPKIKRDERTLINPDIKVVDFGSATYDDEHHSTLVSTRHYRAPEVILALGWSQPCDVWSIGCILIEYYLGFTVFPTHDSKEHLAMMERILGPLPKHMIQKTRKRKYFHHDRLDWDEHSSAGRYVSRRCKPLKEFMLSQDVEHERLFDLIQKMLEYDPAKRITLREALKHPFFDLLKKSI

GCN2(Kin.Dom.2,S808G) = target: T2, GCN2(Kin.Dom.2,S808G) (Homo sapiens, UniProt Q9P2K8, S808G); settings: read-out: %Inh GCN2(Kin.Dom.2,S808G)
T2 sequence (Q9P2K8 590-1001 S808G limits assumed): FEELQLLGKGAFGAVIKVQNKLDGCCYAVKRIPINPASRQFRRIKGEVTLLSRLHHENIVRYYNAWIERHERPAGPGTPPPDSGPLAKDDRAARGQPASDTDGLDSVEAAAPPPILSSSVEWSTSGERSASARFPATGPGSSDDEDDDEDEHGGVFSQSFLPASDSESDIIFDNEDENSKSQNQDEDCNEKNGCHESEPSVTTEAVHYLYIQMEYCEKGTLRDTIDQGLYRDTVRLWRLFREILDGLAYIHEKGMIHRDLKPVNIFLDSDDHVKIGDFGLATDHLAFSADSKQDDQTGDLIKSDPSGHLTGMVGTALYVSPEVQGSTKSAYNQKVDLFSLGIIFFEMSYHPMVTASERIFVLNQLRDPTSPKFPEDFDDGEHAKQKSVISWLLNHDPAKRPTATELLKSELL

GRK1 = target: T3, GRK1 (Homo sapiens, UniProt Q15835); settings: read-out: %Inh GRK1
T3 sequence (Q15835 1-563): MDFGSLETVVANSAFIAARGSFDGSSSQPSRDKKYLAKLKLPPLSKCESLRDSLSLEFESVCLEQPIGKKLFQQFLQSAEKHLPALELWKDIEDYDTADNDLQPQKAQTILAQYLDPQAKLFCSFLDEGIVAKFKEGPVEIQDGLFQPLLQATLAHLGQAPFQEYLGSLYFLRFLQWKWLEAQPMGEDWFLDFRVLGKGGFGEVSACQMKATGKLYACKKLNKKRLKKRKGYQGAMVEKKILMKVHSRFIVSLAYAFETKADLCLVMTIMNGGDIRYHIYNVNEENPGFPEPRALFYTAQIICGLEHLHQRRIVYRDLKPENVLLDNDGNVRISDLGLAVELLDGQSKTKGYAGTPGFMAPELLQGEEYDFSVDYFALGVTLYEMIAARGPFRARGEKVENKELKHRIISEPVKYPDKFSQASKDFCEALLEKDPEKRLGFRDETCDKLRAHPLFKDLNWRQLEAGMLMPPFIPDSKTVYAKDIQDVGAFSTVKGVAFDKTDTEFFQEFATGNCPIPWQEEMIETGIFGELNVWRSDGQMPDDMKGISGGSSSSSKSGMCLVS

LATS1 = target: T4, LATS1 (Homo sapiens, UniProt O95835); settings: read-out: %Inh LATS1
T4 sequence (O95835 1-1130): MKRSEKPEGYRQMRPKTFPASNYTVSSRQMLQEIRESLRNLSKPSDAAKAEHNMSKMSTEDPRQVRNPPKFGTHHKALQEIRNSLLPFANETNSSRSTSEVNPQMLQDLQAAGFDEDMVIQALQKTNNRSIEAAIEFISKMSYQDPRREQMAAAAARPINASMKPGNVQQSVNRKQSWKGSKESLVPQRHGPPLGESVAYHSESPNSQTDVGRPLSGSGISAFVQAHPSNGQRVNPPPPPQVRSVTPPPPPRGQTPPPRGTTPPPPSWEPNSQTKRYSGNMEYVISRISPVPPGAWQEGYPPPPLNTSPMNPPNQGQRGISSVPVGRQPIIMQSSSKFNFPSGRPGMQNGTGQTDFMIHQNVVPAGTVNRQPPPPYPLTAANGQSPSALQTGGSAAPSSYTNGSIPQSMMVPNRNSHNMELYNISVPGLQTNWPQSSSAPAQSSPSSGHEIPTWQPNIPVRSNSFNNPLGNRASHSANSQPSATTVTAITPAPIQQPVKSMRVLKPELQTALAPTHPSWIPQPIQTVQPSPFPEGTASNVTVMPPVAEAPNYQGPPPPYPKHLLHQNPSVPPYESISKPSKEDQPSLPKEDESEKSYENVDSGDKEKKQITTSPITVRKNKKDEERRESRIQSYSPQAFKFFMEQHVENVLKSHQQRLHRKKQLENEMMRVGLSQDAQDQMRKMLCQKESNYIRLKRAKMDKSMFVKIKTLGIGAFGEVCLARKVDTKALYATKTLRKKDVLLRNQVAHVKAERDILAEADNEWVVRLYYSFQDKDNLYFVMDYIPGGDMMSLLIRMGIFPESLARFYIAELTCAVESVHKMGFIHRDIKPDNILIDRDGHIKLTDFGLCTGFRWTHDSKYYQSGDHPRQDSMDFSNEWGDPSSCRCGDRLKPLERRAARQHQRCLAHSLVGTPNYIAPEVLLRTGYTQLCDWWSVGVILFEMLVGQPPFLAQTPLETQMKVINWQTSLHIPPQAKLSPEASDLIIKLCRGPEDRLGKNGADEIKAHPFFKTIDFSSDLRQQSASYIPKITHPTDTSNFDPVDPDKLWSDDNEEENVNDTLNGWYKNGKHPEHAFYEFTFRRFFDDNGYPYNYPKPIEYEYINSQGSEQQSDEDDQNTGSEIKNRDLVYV

| Compound | inhibition at 1 µM (CDKL2) | inhibition at 1 µM (CLK1) | inhibition at 1 µM (GCN2(Kin.Dom.2,S808G)) | inhibition at 1 µM (GRK1) | inhibition at 1 µM (LATS1) |
| --- | --- | --- | --- | --- | --- |
| CS(=O)(=O)Cc1ccc(Nc2nccc(-c3c(-c4cccc(NC(=O)C5CCCCC5)c4)nn4ncccc34)n2)cc1 [UNC10225159A] | 5% | 10% | 0% | 0% | 0% |
| Cn1cc(-c2cnc(N)c3c(-c4ccc5c(c4)CCN5C(=O)Cc4ccccc4)csc23)cn1 [UNC10225012A] | 0% | 15% | 91.2% | 0% | 1% |
| O=c1cc(N2CCOCC2)nc2n(Cc3cccc(Cl)c3Cl)c(C3CC3)nn12 [UNC10225469A] | 0% | 27% | 0% | 0% | 0% |
| COc1cccc(OC)c1C(=O)Nc1cccc(-c2nn3ccccc3c2-c2ccnc(Nc3cccc(F)c3)n2)c1 [UNC10225310A] | 6% | 21% | 0% | 0% | 6% |
| Cc1ccc(NC(=O)Nc2cccc(C(F)(F)F)c2)cc1 [UNC10225187A] | 0% | 3% | 0% | 2% | 0% |
